This assay concerns HepG2 viability, ATP luminescence (CellTiter-Glo), 72 h. The assay is described as follows: HepG2 hepatoma cell cytotoxicity, dose response, cytotoxicity control, CellTiter-Glo luminescence, cherry-pick, set 3 (AID 720589). In general terms: ATP-based viability assays read luminescence as a measure of living cells.
For `CCN1/C(=C/C=C/c2oc3ccc(-c4ccccc4)cc3[n+]2CC)Oc2ccc(-c3ccccc3)cc21`, the AC35 is 2.37 µM.

In the case of `O=c1c2ccccc2nc(/C=C/c2cc(Br)ccc2O)n1CCCO`, the AC35 was 6.52 µM.

On to `Nc1nc(N)c2c(ccc3nccc32)[nH]1`, for which the AC35 was 4.84 µM.

For `C[C@H]1CCCCO[C@H](CN(C)Cc2ccc(C(F)(F)F)cc2)[C@@H](C)CN([C@@H](C)CO)C(=O)c2cc(NC(=O)Nc3ccccc3)ccc2O1`, the AC35 was 22.4 µM.

In the case of `Cc1[nH][nH]c(=O)c1C(c1c(C)[nH][nH]c1=O)c1cn(Cc2ccc(Cl)c(Cl)c2)c2ccccc12`, the AC35 is 13.5 µM.

As for `COC(=O)C[C@@H]1CC[C@@H]2[C@@H](COc3ccc(NC(=O)Nc4ccc(C#N)cc4)cc3C(=O)N2C)O1`, the AC35 is 14.4 µM.

As to `Cc1cc2sc3ccc(C#CC4(O)CCCCC4)cc3c(=O)c2cc1C`, the AC35 is 21.6 µM.

For `C=C1C(=O)[C@@]23[C@H](O)C[C@@H]4C(C)(C)CC[C@H](O)[C@@]4(C)[C@@H]2CC[C@@H]1[C@H]3O`, the AC35 was 15.3 µM.

As for `Nc1ccn([C@@H]2O[C@H](CO)[C@@H](O)C2O)c(=O)n1` (some centres undefined), the AC35 is 0.477 µM.

Take `O=c1cc(CN2CCN(Cc3ccccc3)CC2)c2ccc(O)c(O)c2o1`: the AC35 was 10.3 µM.

`CO[C@H]1CN(C)C(=O)c2ccc(NC(=O)c3ccc(-c4ccccc4)cc3)cc2OC[C@H](C)NC[C@H]1C`: the AC35 is 6.36 µM.

In the case of `COc1ccc(/C=C/C(=O)c2cc(F)ccc2OC(=O)c2ccccc2OC)cc1OC`, the AC35 is 13.9 µM.

On to `COc1ccc(NC(=S)N=Nc2c(O)[nH]c3ccccc23)cc1`, for which the AC35 is 15.8 µM.

For the molecule `CN(C)c1ncnc2c1ccn2C1OC(CO)C(O)C1O` (centres undefined), the AC35 is 0.178 µM.

Take `CN1C/C(=C/c2ccsc2)C(=O)/C(=C/c2ccsc2)C1`: the AC35 was 13.7 µM.

For `O=c1ccc2[n+]([O-])c3ccc(O)cc3oc-2c1`, the AC35 was 5.65 µM.

`C[C@H](CO)N1C[C@H](C)[C@H](CN(C)Cc2ccc(C(=O)Nc3ccccc3N)cc2)Oc2ccc(N(C)C)cc2CC1=O`: the AC35 was 0.19 µM.

In the case of `COc1ccc(C(CCNCc2ccc(OC(C)C)cc2)C(C)C)cc1` (centres undefined), the AC35 was 9.44 µM.

On to `CC1(C)N=C(N)N=C(N)N1c1ccc(OCCCOc2ccccc2)c(Cl)c1`, for which the AC35 is 9.77 µM.

Consider `C[C@]12CC[C@H](O)C[C@H]1CC[C@@H]1[C@@H]2CC[C@]2(C)[C@@H](C3=CC(=O)OC3)CC[C@]12O`, for which the AC35 is 2.6 µM.

For `COc1ccc(OC)c(Cc2cnc3nc(N)nc(N)c3c2C)c1`, the AC35 was 0.0574 µM.

Consider `C[C@H]1CN([C@@H](C)CO)C(=O)c2cc(NC(=O)C3CCCCC3)ccc2O[C@H]1CN(C)Cc1ccc(C(=O)Nc2ccccc2N)cc1`, for which the AC35 is 1.47 µM.

In the case of `BrC(=C\c1ccccc1)/C=N/n1cnnc1`, the AC35 is 16.6 µM.

Consider `O=C(N/N=C/c1cccs1)c1n[nH]c2c1CCCC2`, for which the AC35 was 17.7 µM.

Turning to `Nc1nc(N)c(-c2cccc(C(F)(F)F)c2)c(Cc2cccc(C(F)(F)F)c2)n1`, the AC35 is 4.53 µM.

Consider `CN(C)CC1CCC/C(=C\c2ccc(OC(=O)c3ccc(Cl)cc3)cc2)C1=O` (centres undefined), for which the AC35 was 9.84 µM.

Take `CN(C)c1ccc(N=Nc2nc3ccccc3n2C)cc1`: the AC35 is 12 µM.

Consider `O=C1/C(=C\c2ccccc2)CN(C(=O)CCN2CCCCC2)C/C1=C/c1ccccc1`, for which the AC35 was 3.95 µM.

For `C[C@@H]1O[C@@H](O[C@@H]2C=C3CCC4C(CC[C@]5(C)[C@@H](c6ccc(=O)oc6)CC[C@]45O)[C@@]3(C)CC2)[C@H](O)[C@H](O)[C@H]1O` (some centres undefined), the AC35 was 0.068 µM.

Turning to `C=C1C(=O)OC2C1CCC(C)C1C=CC(=O)C12C` (centres undefined), the AC35 is 9.29 µM.

For `C=C(C(=O)c1ccccc1)C(C(=C)C(=O)c1ccccc1)c1ccc(OC)cc1`, the AC35 was 8.69 µM.

With `C(=NNc1ccc2ccccc2n1)c1ccccn1`, the AC35 is 1.64 µM.

Regarding `CCCCOc1ccc(NC(=O)C(=O)NCCCn2ccnc2)cc1`, the AC35 was 13.7 µM.

`COc1cc(/C=N/NC(=O)c2csc3c2CCCC3)cc(OC)c1O`: the AC35 was 20 µM.

As for `COC(=O)Cc1[nH]n(-c2nc3ccccc3s2)c(=O)c1C(C)=Nc1ccc(C)cc1`, the AC35 was 17.8 µM.

Take `C[C@H](CO)N1C[C@H](C)[C@H](CN(C)Cc2ccc(C(=O)Nc3ccccc3N)cc2)Oc2ccc(N(C)C)cc2C1=O`: the AC35 was 18.2 µM.

As to `C/C(=C\c1ccccc1)C(=O)N1CCC=CC1=O`, the AC35 was 4.88 µM.

In the case of `CC1(C(=O)NCc2ccco2)Cc2c(-c3cccc(C(N)=O)c3)ccnc2O1` (centres undefined), the AC35 is 14.5 µM.

In the case of `C=C1C(=O)O[C@@H]2[C@H]1[C@@H](OC(=O)/C(C)=C/C)C/C(C)=C\C(=O)/C=C(\C)[C@@H]2O`, the AC35 is 12.5 µM.

On to `COc1ccc(S(=O)(=O)Nc2ccc3c(c2)C(=O)N([C@H](C)CO)C[C@@H](C)[C@@H](CN(C)CC2CCCCC2)OCCCC[C@H](C)O3)cc1`, for which the AC35 was 12.2 µM.

With `O=C(O)c1ccc(N/N=C/c2ccc3c(c2)OCO3)cc1`, the AC35 was 5.97 µM.

As to `C[C@@H]1CCCCO[C@H](CN(C)Cc2ccc(C(=O)Nc3ccccc3N)cc2)[C@@H](C)CN([C@@H](C)CO)C(=O)c2cc(NS(=O)(=O)c3ccc(Cl)cc3)ccc2O1`, the AC35 is 8.5 µM.

Take `O=C1c2ccccc2C(=O)c2cc(N3CCCCC3)ccc21`: the AC35 was 12.5 µM.

With `Cc1ccc(C(C)C)c(OCc2ccc(C(=O)N/N=C/c3ccc(O)cc3O)cc2)c1`, the AC35 was 4.24 µM.

With `CCOc1cc(/C=N/Nc2cc(C)nc(-n3nc(C)cc3C)n2)ccc1O`, the AC35 was 1.14 µM.

`Cc1ccc(C(=O)O/N=C(\N)c2ccccn2)cc1`: the AC35 was 13.2 µM.

On to `COC1C(C)OC(OC2CC(C)(O)Cc3cc4c(c(O)c32)C(=O)c2c(O)cc3c(c2C4=O)OC2OC3(C)C(O)C(N(C)C)C2O)C(OC)C1(C)OC` (centres undefined), for which the AC35 is 0.133 µM.

With `O=c1[nH]c(=O)n([C@H]2C[C@H](O)[C@@H](CO)O2)cc1C(F)(F)F`, the AC35 is 15.6 µM.

As for `COc1ccc(/C=C/C(=O)c2ccc(C(=O)/C=C/c3ccc(OC)c(OC)c3)cc2)cc1OC`, the AC35 is 15.1 µM.

As to `CCc1ccc(/C=C2\SC(=S)N(CCCC(=O)NCCCN3CCOCC3)C2=O)cc1`, the AC35 is 10.8 µM.

Regarding `Cc1cc(-c2nc3ccccc3s2)ccc1N`, the AC35 is 0.0502 µM.

With `COc1ccc([Si](C)(C)[C@H]2[C@H](CCO)O[C@@]3(C(=O)N(c4ccccc4)c4ccccc43)[C@@H]2C)cc1`, the AC35 is 10.5 µM.

Consider `Cc1ccc(S(=O)(=O)Nc2ccc3c(c2)C(=O)N([C@@H](C)CO)C[C@H](C)[C@@H](CN(C)Cc2ccc(C(F)(F)F)cc2)OCCCC[C@@H](C)O3)cc1`, for which the AC35 was 13.2 µM.

Regarding `C[C@@H]1CN([C@@H](C)CO)C(=O)Cc2cc(NS(=O)(=O)c3cccs3)ccc2O[C@H]1CN(C)Cc1ccc(Cl)c(Cl)c1`, the AC35 was 0.901 µM.

As to `C[C@H](CO)N1C[C@H](C)[C@H](CN(C)Cc2ccc(C(=O)Nc3ccccc3N)cc2)Oc2ccc(NC(=O)C3CC3)cc2CC1=O`, the AC35 is 0.74 µM.

On to `C[C@@H]1O[C@@H](O[C@@H]2C=C3CC[C@@H]4C(CC[C@]5(C)[C@@H](c6ccc(=O)oc6)CC[C@]45O)[C@@]3(C)CC2)[C@H](O)[C@H](O)[C@H]1O` (some centres undefined), for which the AC35 was 0.0735 µM.

Regarding `C[C@@H]1CN([C@@H](C)CO)C(=O)c2cccc(N(C)C)c2O[C@@H]1CN(C)Cc1ccc(C(=O)Nc2ccccc2N)cc1`, the AC35 was 4.26 µM.

Take `C(=N\Nc1nc2ccccc2[nH]1)/c1ccccn1`: the AC35 is 7.93 µM.

`CC(C)CC#Cc1ccc([C@@H]2[C@@H](CO)N3CCCCN(S(=O)(=O)c4ccc(F)cc4)C[C@H]23)cc1`: the AC35 was 12.7 µM.

As to `COc1cc2c(cc1OC)C(C)N(C(=O)c1cc(Cl)nc(Cl)c1)CC2` (centres undefined), the AC35 is 12.3 µM.

Consider `Cc1noc(C)c1NC(=O)Nc1ccc2c(c1)CC(=O)N([C@H](C)CO)C[C@@H](C)[C@@H](CN(C)Cc1ccc(Cl)c(Cl)c1)O2`, for which the AC35 is 7.54 µM.

Turning to `C=C(C(=O)c1ccccc1)C(C)C(=C)C(=O)c1ccccc1`, the AC35 is 10.2 µM.

For the molecule `CCCCc1c(Cc2ccccc2)ncn1CCc1ccccc1OC`, the AC35 was 13.5 µM.

`C[C@H]1CN([C@@H](C)CO)C(=O)c2cccc(NC(=O)CCCCCC(=O)Nc3ccccc3N)c2O[C@@H]1CN(C)Cc1ccc2c(c1)OCO2`: the AC35 is 10.5 µM.

Consider `C[C@@H]1CN([C@@H](C)CO)C(=O)c2cc(NS(=O)(=O)c3ccc(Cl)cc3)ccc2O[C@@H]1CN(C)Cc1ccc(C(=O)Nc2ccccc2N)cc1`, for which the AC35 is 9.68 µM.

`CCc1cccc2c(C(=O)CN3C(=O)NC4(CCCCC4)C3=O)c[nH]c12`: the AC35 is 8.59 µM.

`C/C(=N\NC(=O)c1n[nH]c2c1CCC2)c1cccs1`: the AC35 is 15.6 µM.

`O=C(Nc1ccccc1F)N1CCCCN2[C@H](CO)[C@H](c3ccc(/C=C/c4ccccc4)cc3)[C@H]2C1`: the AC35 is 4.41 µM.

Regarding `C[C@@H]1O[C@@H](O[C@H]2C[C@@H](O)[C@]3(CO)[C@@H]4C(CC[C@]3(O)C2)[C@@]2(O)CC[C@H](C3COC(=O)C3)[C@@]2(C)C[C@H]4O)[C@H](O)[C@H](O)[C@H]1O` (some centres undefined), the AC35 was 1.47 µM.

For the molecule `CC[C@@H]1C[C@H]2CC[C@H](O2)[C@H](C)C(=O)O[C@@H](C)C[C@@H]2CC[C@@H](O2)[C@@H](C)C(=O)O[C@H](C)C[C@H]2CC[C@H](O2)[C@H](C)C(=O)O[C@@H](C)C[C@@H]2CC[C@@H](O2)[C@@H](C)C(=O)O1`, the AC35 is 0.506 µM.

For `C[C@]12CC[C@H](O)C[C@H]1CC[C@@H]1[C@@H]2C[C@@H](O)[C@]2(C)[C@@H](C3=CC(=O)OC3)CC[C@]12O`, the AC35 was 0.373 µM.

As to `C[C@@H]1CN([C@@H](C)CO)C(=O)Cc2cc(N(C)C)ccc2O[C@H]1CN(C)Cc1ccc(C(=O)Nc2ccccc2N)cc1`, the AC35 was 2.38 µM.

For the molecule `CC(C)(C)[S@](=O)N1Cc2cc(C(=O)NCC(F)(F)F)nc(-c3cccc(-c4cccc(F)c4)c3)c2[C@@H]1CCO`, the AC35 is 0.139 µM.

Take `N#C[C@H]1[C@H](c2ccc(C#Cc3ccccc3F)cc2)[C@@H](CO)N1C(=O)C1CCCCC1`: the AC35 was 12.9 µM.

Consider `COc1ccc(Cn2cc3c(-c4ccc(F)cc4)nnc-3c3cc(OC)c(OC)cc32)cc1`, for which the AC35 was 10.6 µM.

Turning to `O=C(NC(c1ccc(F)cc1)c1ccc2ccccc2n1)C1CCN(Cc2cccc(C(F)(F)F)c2)CC1` (centres undefined), the AC35 is 20 µM.

Consider `COC1C(O)C(C)OC(OC2C(Oc3cccc4c(O)c5c(=O)oc6ccc(C)c7c(=O)oc(c34)c5c67)OC(C)C(O)C2O)C1O` (centres undefined), for which the AC35 is 14.3 µM.

Consider `CCCCNC1=CC(=O)C(=O)c2ccccc21`, for which the AC35 is 7.32 µM.

As to `Nc1ccc(-c2cc3ccccc3oc2=O)cc1`, the AC35 was 2.42 µM.

The values are drawn from PubChem BioAssay AID720589 (Broad Institute, 2013).
